Experiments:
Bacillus cereus = assay: Agar well diffusion, zone of inhibition; assay type: cell-based; settings: 37 °C, 24 h; for Zone of Inhibition: 100 µg/mL
Method: (§1) Antibacterial potential of isolated compound was investigated against both Gram-positive and Gram-negative bacterial strains; Escherichia coli, Bacillus cereus, Salmonella typhi, Klebsiella pneumonia, Pseudomonas aeruginosa and Proteus mirabilis. Bacterial strains were provided by the Department of Pharmacy, University of Malakand, Khyber Pakhtunkhwa, Pakistan, and were kept at 4 °C in agar slants in freeze-dried condition until further use.
(§2) Both Gram-positive and Gram-negative bacterial strains Escherichia coli, Bacillus cereus, Salmonella typhi, Klebsiella pneumonia, Pseudomonas aeruginosa and Proteus mirabilis organism viable count per mL in the stock suspension was determined using surface viable counting technique. About 10^8–10^9 colony-forming units (CFU) per mL were used as inoculum in subsequent experiments. A fresh stock suspension was used each time.
(§3) The antibacterial activity of the isolated compounds (morin, phloroglucinol, and 1-hexyl benzene) was determined using agar well diffusion method. Muller–Hinton agar media was prepared and autoclaved at 15 lbs pressure for 20 min and cooled to 45 °C. The standard bacterial stock suspension 10^8–10^9 CFU/mL were spread on Muller–Hinton agar plates and five wells (3 mm in diameter; four on side and one in center) were punched in plates using a sterile cork borer. The entire wells were filled with 100 µL of the isolated compounds (stock solution: 1 mg/mL) using microtiter-pipette and allowed to diffuse at room temperature for 2 h. The plates were incubated at 37 °C for 24 h. In the center hole, Imipenem was added which served as positive control. Simultaneous, addition of an equal concentration of DMSO solvent instead of isolated compounds was used as blank. After incubation, the zones of inhibition were measured in millimeters (mm) and mean values were calculated. The experiments were performed in triplicates.

Escherichia coli = assay: Agar well diffusion, zone of inhibition; assay type: cell-based; settings: 37 °C, 24 h; for Zone of Inhibition: 100 µg/mL
Method: as §1, §2, §3

Klebsiella pneumonia = assay: Agar well diffusion, zone of inhibition; assay type: cell-based; settings: 37 °C, 24 h; for Zone of Inhibition: 100 µg/mL; for zone of inhibition at 100 µg/mL: Klebsiella pneumoniae
Method: as §1, §2, §3

Proteus mirabilis = assay: Agar well diffusion, zone of inhibition; assay type: cell-based; settings: 37 °C, 24 h; for Zone of Inhibition: 100 µg/mL
Method: as §1, §2, §3

Pseudomonas aeruginosa = assay: Agar well diffusion, zone of inhibition; assay type: cell-based; settings: 37 °C, 24 h; for Zone of Inhibition: 100 µg/mL
Method: as §1, §2, §3

Acute toxicity study = assay type: in vivo, Sprague Dawley adult albino rats; settings: oral 50, 100, 150, 200, 250, 300, and 500 mg/kg body weight; observed 4 h, 24 h to 1 week
Method: Sprague Dawley adult albino rats (body weight range = 170–200 g) were used in in vivo studies. The animals were purchased from Rifah Institute of Pharmaceutical Sciences Islamabad. The entire animals were given food and fresh water ad libitum. The animals were adjusted at room temperature around 22–25 °C. The animals were housed three rats per cage and maintained with light/dark cycle of about 12 h. All the in vivo procedures were carried out according to the ARRIVE guidelines and approval was taken from the Departmental Animal Ethical Committee (DAEC/2019/1), University of Malakand.
For acute toxicity study all the animals were treated orally with different doses (50, 100, 150, 200, 250, 300, and 500 mg/kg body weight) of isolated compound morin. After that the animals were kept under observation for 4 h for signs of toxicity (respiratory aches, convulsions, motor activity, tremors, muscle spasm, sedation, diarrhea, loss of righting reflex, hypnosis, and salivation). All the animals appeared healthy for 24 h to 1 week with no noticeable changes in appearance or behavior, and no signs of mortality were noticed. […]

[1] = tested on: STZ-induced diabetic rats; assay: Antioxidant enzymes and oxidative stress markers in pancreas tissue homogenates of STZ-induced diabetic rats; assay type: in vivo, Sprague Dawley adult albino rats
Method: The pancreas tissue (1 g) was isolated from Sprague Dawley rats, washed with cold saline solution and blotted dried. A weighed portion of the pancreas tissue was homogenized on ice and then centrifuged for 15 min at 3500 rpm at 4 °C. The supernatant was then taken and stored at −20 °C until assessed for different enzymes.
The activities of reduced glutathione (GSH) level were determined in the pancreatic tissues according to the previously established method. About 300 µL of tissue supernatant was centrifuged for 5 min at 3500 rpm following deproteinization with 300 µL of 10% trichloroacetic acid. In total, 200 µL of the resulting supernatant of each sample (at concentrations 2, 5, 10, 15, 30, and 50 µg/mL) was mixed with 50 µL of Ellman’s reagent (5,5′-dithiobis-(2-nitro-benzoic acid)) (DTNB) then centrifuged at 3000 rpm for 15 min. The absorbance was recorded at 412 nm. A series of standards treated in a similar way were also run to determine the glutathione content. The amount of glutathione is expressed as µmole/mg of tissue protein.
. […] The pink colored TBARS was measured photometrically at 532 nm and tissue MDA was determined from a standard curve and is expressed as nmole/mg of tissue protein. […]

Compound | Zone of Inhibition (Bacillus cereus) | zone of inhibition at 100 µg/mL (Bacillus cereus) | Zone of Inhibition (Escherichia coli) | zone of inhibition at 100 µg/mL (Escherichia coli) | Zone of Inhibition (Klebsiella pneumonia) | zone of inhibition at 100 µg/mL (Klebsiella pneumonia) | Zone of Inhibition (Proteus mirabilis) | zone of inhibition at 100 µg/mL (Proteus mirabilis) | Zone of Inhibition (Pseudomonas aeruginosa) | zone of inhibition at 100 µg/mL (Pseudomonas aeruginosa) | acute toxicity (signs of toxicity, mortality) (Acute toxicity study) | MDA level (lipid peroxidation) ([1]; morin 2, 5, 10, 15, 30, and 50 µg/kg body weight, pancreas tissue homogenates) | GPx activity ([1]; morin, pancreatic tissues homogenates of diabetic rats)
CCCCCCc1ccccc1 [1-Hexyl benzene, 1-hexylbenzene] | 8.5 ± 0.1 mm | 8.5 ± 0.1 mm | 9.3 ± 1.1 mm | 9.3 ± 1.1 mm | 6.3 ± 0.5 mm | 6.3 ± 0.5 mm | 4.5 ± 1.5 mm | 4.5 ± 1.5 mm | 5.5 ± 0.5 mm | 5.5 ± 0.5 mm |  |  | 
O=c1c(O)c(-c2ccc(O)cc2O)oc2cc(O)cc(O)c12 [Morin, 2-(2,4-Dihydroxyphenyl)-3,5,7-trihydroxychromen-4-one] | 17 ± 0.1 mm | 17 ± 0.1 mm | 19 ± 1.1 mm | 19 ± 1.1 mm | 15 ± 0.5 mm | 15 ± 0.5 mm | 11 ± 1.5 mm | 11 ± 1.5 mm | 14 ± 0.5 mm | 14 ± 0.5 mm | safe and nontoxic up to 500 mg/kg body weight | significantly (p < 0.05, p < 0.01, p < 0.001) decreased | significantly increased
Oc1cc(O)cc(O)c1 [Phloroglucinol, Benzene-1,3,5-triol] | 13 ± 1.2 mm | 13 ± 1.2 mm | 15 ± 0.3 mm | 15 ± 0.3 mm | 11 ± 0.5 mm | 11 ± 0.5 mm | 7.5 ± 0.2 mm | 7.5 ± 0.2 mm | 10 ± 1.1 mm | 10 ± 1.1 mm |  |  | 

Reference: publication PMC8348310, “Antioxidants Isolated from Elaeagnus umbellata (Thunb.) Protect against Bacterial Infections and Diabetes in Streptozotocin-Induced Diabetic Rat Model” (Molecules, 2021)
